Our source for the MIC, solubility and Activity values is ChEMBL document CHEMBL5252586, “2-[(2-Amino-6-methylpyrimidin-4-yl)sulfanyl]-N-arylacetamides: Discovery of a new class of anti-tubercular agents and prospects for their further structural modification” (Bioorg Med Chem Lett, 2023).

Converted amounts (≈) assume the structure as drawn. The source made the active and inactive calls. The rule behind the calls is not given here.

The first series has as its system Mycobacterium tuberculosis. As to the kind of experiment: Antimycobacterial activity against Mycobacterium tuberculosis H37Rv assessed as reduction in bacterial growth. It counts as functional.
Details: not given
`NNC(=O)c1ccncc1` [ISONIAZID]: the MIC is 0.1 µg/mL (≈ 0.729 µM).

Turning to `CO[C@H]1/C=C/O[C@@]2(C)Oc3c(C)c(O)c4c(O)c(c(/C=N/N5CCN(C)CC5)c(O)c4c3C2=O)NC(=O)/C(C)=C\C=C\[C@H](C)[C@H](O)[C@@H](C)[C@@H](O)[C@@H](C)[C@H](OC(C)=O)[C@@H]1C` [RIFAMPIN], the minimum inhibitory concentration (MIC) came to 0.5 µg/mL (≈ 0.608 µM).

On to `Cc1cc(SCC(=O)Nc2cc(C(F)(F)F)ccc2Cl)nc(N)n1`, for which the MIC was determined as 25 µg/mL (≈ 66.3 µM).

On to `Cc1cc(SCC(=O)Nc2ccc(F)cc2)nc(N)n1`, for which the minimal inhibitory concentration (MIC) came out at 100 µg/mL (≈ 342 µM).

On to `CC[C@@H](CO)NCCN[C@@H](CC)CO` [ETHAMBUTOL], for which the MIC worked out at 5 µg/mL (≈ 24.5 µM).

In the case of `Cc1cc(SCC(=O)Nc2cc(Cl)ccc2Cl)nc(N)n1`, the MIC was found to be 1.5 µg/mL (≈ 4.37 µM).

In the case of `Cc1cc(SCC(=O)Nc2ccc(C(C)C)cc2)nc(N)n1`, the MIC turned out to be 1.5 µg/mL (≈ 4.74 µM).

Turning to `Cc1cc(SCC(=O)Nc2cccc(Cl)c2C)nc(N)n1`, the MIC is 100 µg/mL (≈ 310 µM).

With `Cc1ccc(NC(=O)CSc2cc(C)nc(N)n2)c(C)c1`, the MIC turned out to be 100 µg/mL (≈ 331 µM).

With `Cc1cc(SCC(=O)Nc2ccccc2)nc(N)n1`, the MIC was 100 µg/mL (≈ 364 µM).

Tested on in the next series: not listed separately
As to the kind of experiment: Solubility of compound. It counts as physicochemical.
Details: not given
Regarding `Cc1cc(=O)[nH]c(N)n1`, the solubility entry is on record as “Soluble”.

A further series has as its system Mycobacterium tuberculosis. As to the kind of experiment: Antimycobacterial activity against Mycobacterium tuberculosis H37Rv assessed as reduction in bacterial growth at 100 microg/ml. It counts as functional, organism-based. Conditions: dose 100.0 µg/ml.
For the compound `Cc1ccc(NC(=O)CSc2cc(C)nc(N)n2)cc1`, the result was inactive.

The MIC is the lowest concentration found to suppress growth.
